In patent US20060100264A1, “3,3'-Diindolylmethane immune activating compositions” (priority 2004, published 2006):

What was measured:
IFNγ receptor (IFNGR1) = experiment: IFNGR1 mRNA expression in DIM-treated MCF-7 cells (cDNA microarray, Northern blot, quantitative RT-PCR); assay type: cell-based, human
Experimental: (§1) Immune response activating effects of the DIM analogs are examined with cell-based assays for cytokine and cytokine receptor expression. […] We also used a sensitive sandwich ELISA assay to examine levels of IFNγ in medium from confluent cultures of MCF-7 cells that were treated for up to 3 days. DIM derivatives confirmed to have immune response activating activity in our reporter and ELISA assays are subsequently screened in a whole animal cytokine production and Y. enterocolitica infection studies, as described below in Examples VIII and IX.
(§2) An initial cDNA gene expression microarray screen of human breast cancer MCF-7 cells treated with DIM, followed by confirmation of results using Northern blots and quantitative RT-PCR, established the transcriptional activation of IFNγ, IFNγ receptor (IFNGR1), oligoadenylate-synthase (OAS) family member protein 69 (p69-OAS), and interferon-inducible protein 56 (p56), a protein closely related to OAS. […] Maximum induction for IFNγ, IFNGR1, p69-OAS and p56 were 4.6, 3.8, 3.2 and 4.0 fold, respectively.

[1] = tested on: oligoadenylate-synthase (OAS) family member protein 69 (p69-OAS); experiment: p69-OAS mRNA expression in MCF-7 cells (microarray, Northern blot, RT-PCR); assay type: cell-based, human
Experimental: as §1, §2

IFNγ = experiment: Sandwich ELISA of IFNγ in medium from confluent MCF-7 cultures; assay type: cell-based, human; details: vehicle control virtually undetectable
Experimental: as §1
Using a sensitive sandwich ELISA assay, we examined levels of IFNγ in medium from confluent cultures of MCF-7 cells that were treated with DIM for up to 3 days. […] Levels of IFNγ in the medium of cultured cells were increased following incubations for 1 and 3 days from virtually undetectable levels in the vehicle treated control to approximately 50±10 pg/mL and 80±30 pg/mL, respectively, for the indole treated cells.

IFNGR1 protein = experiment: Western blot analysis of IFNGR1 protein; assay type: cell-based, human
Experimental: IFNGR1 protein levels increased by approximately 7 fold after 24 h and persisted to 48 h compared to DMSO-treated controls.
Comparison of our results with DIM to our studies with I3C (27) show some distinct differences in the activity of DIM and its in vivo precursor in their effects on IFNγ signaling. […] Similar effects of DIM and I3C were also observed on cell proliferation and cell cycling. […] Thus, a strong level of induction (about 5 fold) was seen after only 6 hours of exposure to DIM, and the maximum induction was attained by 24 hours of treatment with this diindole. In contrast, receptor expression was increased by only about 3 fold following 24 hours of treatment with I3C, and appeared to reach the maximum induction only after about 48 hours of exposure. […] Indeed, we have shown previously that DIM accumulates in the nucleus of MCF-7 cultured cells treated with I3C (28).

[2] = tested on: OAS-Luc reporter (promoter and 5′-flanking region of p69-OAS); experiment: OAS-Luc luciferase reporter in transiently transfected MCF-7 cells; assay type: cell-based, human; details: 24 h treatment
Experimental: In a further experiment to examine whether the inducing effects of DIM are at the transcriptional level, the effect of DIM on activities of two luciferase reporter constructs, OAS-Luc (12) and 4GAS-Luc (13) was examined. OAS-Luc contains the promoter and 5′-flanking region (−972) of p69-OAS and GAS-Luc contains four repeats of the consensus GAS element. MCF-7 cells transiently transfected with these reporter constructs were treated with IFNγ, DIM, or a combination of both for 24 h. […] IFNγ induced transcriptional activity of this reporter in a concentration dependent manner to a maximum of about 1.8 fold, which is less than the response of the endogenous gene of about 5.0 fold. In marked contrast to the maximum effects of combined treatments of the inducers on endogenous gene expression (nearly 12-fold increase compared to vehicle treated cells), the reporter gene construct responded with less than a 3-fold increase over the controls.

STAT1 = STAT1 phosphorylation (Tyr-701) by Western blot; assay type: cell-based, human; details: DIM 6 or 24 h, with or without 15 min IFNγ exposure
Description: To acsertain the role of GAS element activation in transcriptional activation by DIM, we examined the effect of this indole on downstream events in the GAS signaling pathway. For this purpose, the effects of DIM on phosphorylation of the signal transduction and activator of transcription factor 1 (STAT1), and the binding of the activated STAT1 dimer to the cognate GAS responsive element were examined. Phosphorylation of STAT1 by Janus-activated kinase (JAK) is the first step in IFNγ signaling following binding to IFNGR1. For these studies, cells were pretreated with DIM for 6 or 24 h followed by a 15 min. exposure to IFNγ. STAT1 phosphorylation levels in cell lysates of DIM-treated cells were compared to controls that received IFNγ but had not been treated with DIM. Phosphorylation was measured by Western blot analysis using an antibody specific to STAT1 phosphorylated on Tyr-701 residue.

MCF-7 cells = experiment: Flow cytometry of cell cycling (G1 phase); assay type: cell-based, human; details: up to 3 days; control approximately 50% in G1
Description: Flow cytometry was used to determine the effects of DIM and IFNγ on cell cycling. […] In control groups approximately 50% of the cells were in G1. Treatment with IFNγ alone caused a small progressive increase in G1 blocked cells of up to 10% above the DMSO control, after 3 days.

G-CSF = experiment: Serum G-CSF by ELISA in mice after DIM; assay type: in vivo; details: 30 μg/kg DIM orally
Experimental: (§3) We firstly investigated the effect of unsubstituted DIM on the production of IL-6, G-CSF, IL-12, TNF-α and IFNγ. A groups of 3 mice was given 30 μg/kg of unsubstituted DIM orally and then sacrificed at 1, 3, 5, 8, and 24 h after drug challenge. Serum was collected, pooled, and assayed for IL-6, G-CSF, IL-12 and TNF-α by ELISA. […] DIM produced an increase in circulating levels of G-CSF and TNF-α with the 3 h time point being maximal. […] DIM also stimulated IL-12 and kinetics were slightly different since the increased levels were sustained for at least 24 h.

TNF-α = experiment: Serum TNF-α by ELISA in mice after DIM; assay type: in vivo; details: 30 μg/kg DIM orally
Experimental: as §3

IL-12 = experiment: Serum IL-12 by ELISA in mice after DIM; assay type: in vivo; details: 30 μg/kg DIM orally
Experimental: as §3

[3] = tested on: DMBA-induced mammary tumorigenesis; details: repeated oral administrations during promotion stage, rodents; cited from earlier work

## c1ccc2c(Cc3c[nH]c4ccccc34)c[nH]c2c1 [DIM, 3,3′-Diindolylmethane]
IFNγ receptor (IFNGR1); MCF-7 cells treated with DIM
  Maximum induction of IFNGR1 mRNA: 3.8 fold
  Treatment time at which maximum IFNGR-1 induction was reached: 48 h
IFNγ receptor (IFNGR1); MCF-7 cells, 48 h
  IFNGR1 mRNA level at 48 h of treatment: remained elevated
[1]; MCF-7 cells treated with DIM
  Maximum induction of p69-OAS mRNA: 3.2 fold
  Treatment time at which p69-OAS expression was fully induced: 6 h
[1]; MCF-7 cells, 48 h
  p69-OAS mRNA level at 48 h of treatment: remained elevated
IFNγ; MCF-7, incubation 1 day
  Level of IFNγ in the medium of cultured cells: approximately 50±10 pg/mL
IFNγ; MCF-7, incubation 3 days
  Level of IFNγ in the medium of cultured cells: ~80 ± 30 pg/mL
IFNGR1 protein; DIM
  Maximum level of IFNGR1 protein induction: about 7 fold
  Time at which maximum IFNGR1 protein induction was attained: ≤ 24 h
IFNGR1 protein; after 6 hours of exposure to DIM
  IFNGR1 protein induction: about 5 fold
IFNGR1 protein; after 24 h of DIM, persisted to 48 h
  IFNGR1 protein level increase compared to DMSO-treated controls: approximately 7 fold
[2]
  Maximum induction of OAS-Luc reporter: about 2.3 fold
STAT1
  STAT1 phosphorylation (Tyr-701): did not induce STAT1 phosphorylation
MCF-7 cells
  Increase in G1 blocked cells above the DMSO control: up to 30%
G-CSF
  Time point of maximal circulating G-CSF: 3 h
TNF-α
  Time point of maximal circulating TNF-α: 3 h
IL-12
  Time for which increased IL-12 levels were sustained: at least 24 h
[3]
  Inhibition of tumor growth: ≤ 95%
